Reference: patent publication US20250295627A1 (Leibniz-Institut Fuer Neurobiologie, priority 2022, published 2025)

Legend:
[1] = system: pCREB; test: Aβ-induced CREB shutoff (nuclear pCREB) in hippocampal primary neurons; format: cell-based, rat
Protocol: Hippocampal and cortical cultures were prepared from Wistar rat embryos (E18) of mixed sex as described previously (Spilker et al., 2016). Briefly, dissected were digested for 15 min with trypsin at 37° C. Neurons were plated on plastic 12-well dishes (Greiner) on glass coverslips coated with poly-L-lysine (Sigma-Aldrich) at a density of 60 000 cells/well in DMEM medium (Gibco, Thermo Fisher Scientific) supplemented with 10% FCS, 1× penicillin/streptomycin, and 2 mM glutamine. After 1 h incubation (at the 37° C., 5% CO2, 95% humidity) cells were kept in BrainPhys medium supplemented with 1% SM1 (Stemmcell Technologies), 0.5 mM Glutamine (Gibco) at 37° C., 5% CO2 and 95% humidity. […]
For quantitation of nuclear staining intensity (pCREB or CREB) somatic regions were sequentially scanned using the 63× objective (Leica) in both: Leica TCS SP8-STED and Leica TCS SP5 systems. […] Unprocessed images were analysed using Fiji/ImageJ software (Schindelin et al., 2012). For visualization of the quantified channel a fire look-up table (LUT) was used. Synaptic density was quantified in secondary dendrites using Fiji/ImageJ (Schindelin et al., 2012). […] Intensity of the GluA1 channel was measured in ROIs defined by a Shank3 mask as a readout for surface AMPAR expression.

[2] = system: TBA2.1 and 5×FAD mice; test: Acute hippocampal slices, CA1-LTP recordings; format: ex vivo, mouse; details: for basal synaptic transmission: bath application
Protocol: The 350 μm thick hippocampal slices were prepared according to a previously described protocol (Grochowska et al., 2017). Briefly, hippocampal slices were incubated in bubbling 95% 02, 5% CO2 ASCF solution for 2 h at 31+/−1° C. Field excitatory postsynaptic potentials (fEPSPs) were measured in stratum radiatum after stimulation of CA1 Schaffer collateral fibers with ACSF glass capillary microelectrodes (3-5 MΩ). fEPSPs were amplified by Extracellular Amplifier (EXT-02B, npi, Germany) and digitized at a sample frequency of 5 kHz by Digidata 1201 plus AD/Da converter (CED, UK). The strength of stimuli was adjusted to 25-35% of the maximum fEPSP slope values. Single stimuli were applied at 0.0333 Hz and averaged every 5 min. Stable baseline recordings were followed by tetanisation with 3×1 s stimulus trains at 100 Hz with a 10 min inter-train interval.
. For TBA2.1 mice (both sexes), treatment started at the age of 4 weeks. The animals were group housed and force fed for 4 weeks. […] Treatment in 5×FAD male mice started at the age of 12 weeks. Here, animals were single housed right away and given a choice between voluntary and forced feeding. […] During the course of the 7th week of treatment, animals were either subjected to perfusion to obtain their brains for subsequent immunohistochemistry or they were culled to obtained native brains for electrophysiological recordings.

[3] = system: TBA2.1 and 5×FAD mice; test: Amyloid load (amyloid-β positive puncta) in CA1 after oral Nitarsone; format: in vivo, mouse
Protocol: Animals were anesthetized with ketamine/xylazine (Medistar) and transcardially perfused with 0.9% saline followed by 4% PFA. The brains were post-fixed in 4% PFA in PBS overnight, followed by immersion in 0.5 M sucrose for 24 h and then 1M sucrose for another 1 to 2 days or until the brains were sunken down. The brains were snap-frozen and cut into 35 μm thick coronal cryosections (Leica CM3050S, Leica-Microsystems). The sections were blocked in a buffer (0.3% TX-100, 10% NGS in PBS) for 30 min at RT, and incubated with primary antibodies diluted in the blocking solution, overnight at 4° C. Secondary antibodies were applied for 2 h at RT. Sections were counterstained with DAPI and mounted in Mowiol 4-88 (Merck Chemicals). For the detection of Aβ, the heat-based antigen retrieval method was used. […]
All quantifications were done within the distal CA1 region of the hippocampus. […] CREB and pCREB immunoreactivity of every single nucleus in a 100 μm stretch was measured in arbitrary units of pixel intensity. […] The neuronal loss was quantified based on NeuN staining (the number of neurons/CA1 length). For the quantification of microglia and astrocytes the number of cells based on overlaid DAPI and Iba-1 or GFAP signal was quantified within the rectangular ROI. Aβ plaques were counted in the region where the neuronal loss was quantified.

[4] = system: pCREB; test: pCREB in primary cortical cultures overexpressing poly(GA) aggregates (ALS model); format: cell-based, rodent; details: 5 µM nitarsone, 48 hours
[5] = system: pCREB; test: pCREB in motor neurons differentiated from hiPSC (ALS model); format: cell-based, human; details: hiPSC-derived motor neurons, treated at day in vitro 56

## O=[N+]([O-])c1ccc([As](=O)(O)O)cc1 [Nitarsone, (4-nitrophenyl) arsonic acid]
[1]; 5 µM co-application, 500 nM Aβ oligomers, 48 h
  CREB shutoff induced by Aβ oligomers for 48 h: rescued CREB shutoff
[1]; 10 μM bath application, 30 min prior or 2 h after 500 nM Aβ for 2 h
  acute Aβ-induced CREB shutoff: prevented acute Aβ-induced CREB shutoff
[2]; 5×FAD mice
  basal synaptic transmission: not affected
[2]; TBA2.1 mice
  basal synaptic transmission: not affected
[2]; slices of Nitarsone-fed 5×FAD mice, postnatal week 19
  late-phase LTP, fEPSP slope in the last 30 minutes of recordings: rescued
[2]; slices of Nitarsone-fed TBA2.1 mice, postnatal week 11
  late-phase LTP, fEPSP slope in the last 30 minutes of recordings: rescued
[3]; 5×FAD mice
  amyloid load: did not detect any effects
[3]; TBA2.1 mice
  amyloid load: did not detect any effects
[4]; control cells (poly (GA)-negative)
  pCREB nuclear immunoreactivity: do not display any change
[4]; poly-(GA) 175-EGFP-transduced cells
  poly (GA)-induced decrease in pCREB nuclear immunoreactivity: completely rescued
[5]
  impairment of CREB function: rescues the impairment of CREB function
